The text below walks through data of patent US10730839B2, “Quinolines as cytoprotective agents” (priority 2016, dated 2020).

Some results are limits rather than exact numbers.

Experiment [1] deals with CSM14.1 neuronal cells. In words: Cell survival assay (thapsigargin-treated cells, CELLTITER-GLO luminescence). The conditions noted are these: compound 2 hrs before about 15 μM thapsigargin, overnight. Format: cell-based. As for the experimental part: CSM14.1 neuronal cells were maintained in Complete Medium at 32° C.; wherein the Complete Medium contained Dulbecco's modified eagle medium (DMEM) with 10% fetal bovine serum (FSB), 1% L-glutamine, 100 IU/mL penicillin, and 100 μg/mL streptomycin. The cells were recovered from cultures by trypsinization and then seeded in 384 well plates (Greiner #781098) at a concentration of 1,000 cells/well in 20 μL of DMEM Assay Medium, wherein the DMEM Assay Medium contained 2% FBS, 100 IU/mL penicillin, and 100 μg/mL streptomycin. Seeding was performed using a MultiDrop Combi reagent broadcaster. The plates were incubated overnight at 32° C. A test compound was prepared by 2-fold serial dilution in 100% DMSO using a BIOMEK® 2000 liquid handler (Beckman Coulter). A dose-response curve containing 10 concentrations of the test compound was obtained. Using a BIOMEK® FX liquid handler (Beckman Coulter), 2.5 μL of the test compound was transferred from the 100% DMSO serial dilution plate to an intermediate plate containing 47.5 μL of DMEM Assay Medium containing 2% FBS, 100 IU/mL penicillin, and 100 μg/mL streptomycin and mixed. To reduce or eliminate the interference from the compound's precipitation, 6 μL of the diluted compound was immediately transferred to the assay plate to achieve a high compound concentration of 100 μM in 99% DMEM Assay Medium and 1% DMSO. After the assay plates were incubated for 2 hrs, 4 μL of 112.5 μM thapsigargin (TG) (DMSO stock diluted into Assay TC Medium) was dispensed into each testing well with a MultiDrop Combi reagent broadcaster for a final concentration of about 15 μM TG. The tissue culture media (4 μL) containing vehicle only was transferred manually to each control cell using a 16 channel electronic pipette. After the plates were incubated overnight (about 16 to 24 hrs), CELLTITER-GLO® (Promega) (16 μL) was added to all wells and luminescence was measured. High luminescence indicates cell survival. The biological results are summarized in Table 1 where A represents a cell viability EC50 less than 1 μM and B represents a value greater than 1 μM and less than 10 μM and C represents a value equal to or greater than 10 μM and less than 20 μM.

The subject of experiment [2] is Ob/ob mice. In words: Effect of a SERCA agonist on the level of blood glucose. Format: in vivo. The settings on record: Mus musculus, ip, 96 h, 50 mg/kg i.p. once a day for 5 days, fasting glucose at baseline and 4 days after administration, read-out: Glucose level reduction. As for the experimental part:
Ob/ob mice (10 weeks old, n=7) were intraperitoneally (i.p.) injected with 100 μL of a solution containing 0 (vehicle) or 50 mg/kg of a test compound once a day for a total of 5 days. Fasting glucose was measured at baseline and 4 days after the administration of the test compound. Glucose levels were measured in blood samples drawn from the tail vein using a handheld glucose sensor. Compound effects on blood glucose are shown in Table 5 where A represents a 10-20% reduction in blood glucose, B represents a 21-30% reduction in blood glucose, and C represents a greater than 30% reduction in blood glucose levels.

Experiment [3] concerns HEK293 cells; N2a cells. Put plainly: Cell rescue assay: protection against thapsigargin (TG)-induced cell-death (ALAMARBLUE). Format: cell-based, Human; Mouse. The settings on record: Homo sapiens; compound 20 μM, 2 hrs before thapsigargin (15 μM HEK293, 1 μM N2a), 24 hrs; viability as % RFU compared to control; read-out: Cell Survival %. As for the experimental part: Protection against Thapsigargin (TG)-induced Cell-death. Human embryonic kidney (HEK293) cells were grown in Dulbecco's Modified Eagle's Medium (DMEM) with 10% FBS and 1% antibiotic antimycotic solution (ABAM). Mouse neuroblastoma (N2a) cells were grown in 1:1 DMEM:OPTI-MEM® with 5% FBS and 1% ABAM. All cells were grown in 10% CO2 in a humidified environment of the incubator. Cells grown in 96-well plates were exposed to a test compound (20 μM) for 2 hrs before addition of thapsigargin (15 μM for HEK293 cells and 1 μM for N2a cells) to induce ER stress. After incubation in cell-culture incubator for 24 hrs, ALAMARBLUE® regent (10% v/v) was added to the wells. Fluorescence reading was taken 2 hrs after the addition of the ALAMARBLUE® regent. Cell-viability was calculated as a percentage of relative fluorescence unit (RFU) compared to control. […] The biological results are summarized in Table 2, where each compound was tested at 20 μM and where A represents a viability greater than 50%, B represents a viability greater than 10% and less than 50%, C represents a value at or below 10%.

In experiment [4] the target is T1, SERCA (Homo sapiens, UniProt P16615).
T1 construct: microsomal preparations from HEK 293 cells; endogenous in cells; host or cells: HEK 293 cells (microsomal preparation)
T1 sequence (P16615 whole entry): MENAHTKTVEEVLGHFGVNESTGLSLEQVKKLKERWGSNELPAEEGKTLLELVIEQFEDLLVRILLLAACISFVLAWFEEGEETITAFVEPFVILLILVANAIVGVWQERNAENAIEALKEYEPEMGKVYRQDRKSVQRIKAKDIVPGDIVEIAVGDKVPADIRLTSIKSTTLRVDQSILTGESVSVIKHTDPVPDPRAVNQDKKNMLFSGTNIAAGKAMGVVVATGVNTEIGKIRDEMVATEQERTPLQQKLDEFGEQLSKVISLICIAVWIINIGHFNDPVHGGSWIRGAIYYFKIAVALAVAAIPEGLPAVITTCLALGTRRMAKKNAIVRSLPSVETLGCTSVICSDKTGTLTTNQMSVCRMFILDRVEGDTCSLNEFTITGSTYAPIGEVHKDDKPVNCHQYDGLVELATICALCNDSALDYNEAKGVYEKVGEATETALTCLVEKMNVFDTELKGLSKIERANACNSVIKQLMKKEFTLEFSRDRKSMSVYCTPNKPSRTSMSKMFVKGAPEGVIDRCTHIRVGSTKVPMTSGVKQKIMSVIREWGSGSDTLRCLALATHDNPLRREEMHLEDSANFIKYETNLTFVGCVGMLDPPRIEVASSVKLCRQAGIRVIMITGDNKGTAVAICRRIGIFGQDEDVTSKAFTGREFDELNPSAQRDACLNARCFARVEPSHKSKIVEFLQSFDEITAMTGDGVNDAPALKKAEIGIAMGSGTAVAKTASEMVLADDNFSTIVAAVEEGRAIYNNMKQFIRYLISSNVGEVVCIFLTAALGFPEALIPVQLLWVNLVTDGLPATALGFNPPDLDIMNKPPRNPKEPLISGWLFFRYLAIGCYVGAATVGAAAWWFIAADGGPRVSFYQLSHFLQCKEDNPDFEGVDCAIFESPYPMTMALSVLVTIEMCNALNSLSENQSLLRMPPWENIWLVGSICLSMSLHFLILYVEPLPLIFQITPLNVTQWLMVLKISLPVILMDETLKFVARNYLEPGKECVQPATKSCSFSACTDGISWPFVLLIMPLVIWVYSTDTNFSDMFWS
Put plainly: Ca-ATPase assay (NADH-linked, enzyme-coupled ATPase assay). In kind it is biochemical. The settings on record: microsomal preparations from HEK 293 cells, Vmax from Hill fit of ATPase calcium-dependence, relative to controls. As for the experimental part: A Ca-ATPase assay was performed using microsomal preparations from HEK 293 cells at a series of calcium concentrations corresponding to the physiological range, relative to controls. The ATP hydrolysis rate was measured over a range of calcium concentrations in the presence of test compounds using an NADH-linked, enzyme-coupled ATPase assay adapted for 96-well microplates, with Vmax determined by fitting the ATPase calcium-dependence to the Hill function. Each well contained 2 μg or 7 μg of SR vesicles (optimized for skeletal or cardiac SR, respectively), 50 mM MOPS (pH 7.0), 100 mM KCl, 5 mM MgCl2, 1 mM EGTA, 0.2 mM NADH, 1 mM phosphoenol pyruvate, 5 IU pyruvate kinase, 5 IU lactate dehydrogenase, and 3.5 μg/mL A23187 (a calcium ionophore). CaCl2 was added to set free [Ca^2+] to the specific values. The assay was started upon addition of ATP at a final concentration of 5 mM, and read in a SpectraMax Plus microplate spectrophotometer. The results are summarized in Table 4, where A represents an increase in SERCA Vmax greater than or equal to 50% and B represents a value greater than 10% and less than 50%.

Experiment [5] relates to SH-SY5Y cells. Put plainly: Cell rescue assay: protection against ß-amyloid-induced cell toxicity. In kind it is cell-based. The settings on record: Homo sapiens, 96 h, 7.5 uM compound, AB 1-42 at 10 uM, 4 days, OD at 490 nm, read-out: Cell Survival % (cell rescue). The method, then:
Protection against ß-amyloid-induced cell toxicity. Chonpathompikunlert et al. Eu. J. Pharmacol. 2011, 650, 544-549. Human SH-SY5Y cells are suspended in media containing 2% FBS and 2× Gentamicin. Transfer 100 ul/well culture to 96-well plate (20,000 cells/well; passage #5) and incubate overnight. Prepare compound samples at 30 uM. Add 50 ul of the samples to the cells [[…]] and incubate 3 hours. Make stock of 40 uM AB 1-42 peptide in assay media. Transfer 50 ul/well to cells/compounds in assay plate. The final assay volume is 200 ul/well, containing 2% FBS, 2× Gentamicin, 7.5 uM compound and AB 1-42 at 10 uM. Incubate for 4 days then add 20 ul of Promega Substrate Cell Titer 96 Aqueous One Solution Reagent to each well. Incubate 37 OC and read OD at 490 nm. The results are summarized in Table 3, where A represents a value equal to or greater than 50% cell rescue, B represents a value greater than 10% and less than 50% cell rescue, and C represents a value greater than 1% and less than or equal to 10% cell rescue.

Regarding `Cc1ccc2cccc(C(=O)Nc3cc(Br)cs3)c2n1` [B1, N-(4-Bromothiophen-2-yl)-2-methylquinoline-8-carboxamide], the half-maximal effective concentration (EC50) in experiment [1] was 1 to 10 µM. Also, the inhibition in vivo at 50 mg/kg in experiment [2] is over 30%. Moreover, in experiment [3], the viability at 20 µM is over 50%. Also, the “SERCA Vmax Increase” value in experiment [4] is “A (an increase in SERCA Vmax greater than or equal to 50%)”. In addition, the viability at 7.5 µM in experiment [5] is 10 to 50%.

Turning to `Cc1ccc2cccc(C(=O)Nc3ccc(Cl)cc3)c2n1` [A2, N-(4-Chlorophenyl)-2-methylquinoline-8-carboxamide], the EC50 in experiment [1] lay within 1 to 10 µM. For the same molecule, the inhibition in vivo at 50 mg/kg in experiment [2] is over 30%. Also, the viability at 20 µM in experiment [3] was over 50%. Also, in experiment [4], the “SERCA Vmax Increase” value was “B (a value greater than 10% and less than 50%)”. Besides, the viability at 7.5 µM in experiment [5] is at least 50%.

In experiment [1], `Cc1ccc2cccc(C(=O)Nc3ccc(C4CC4)s3)c2n1` [B5, N-(5-Cyclopropylthiophen-2-yl)-2-methylquinoline-8-carboxamide] showed a 50% effective concentration (EC50) of 1 to 10 µM. In addition, the inhibition in vivo at 50 mg/kg in experiment [2] was 10 to 20%. For the same molecule, the viability at 20 µM in experiment [3] is at most 10%. Further, the “SERCA Vmax Increase” value in experiment [4] was “A (an increase in SERCA Vmax greater than or equal to 50%)”. The viability at 7.5 µM in experiment [5] fell in the range of 1 to 10%.

As to `Cc1ccc2cccc(C(=O)Nc3ccc(N(C)C)cc3)c2n1` [A4, N-(4-(Dimethylamino)phenyl)-2-methylquinoline-8-carboxamide], in experiment [1], the concentration for a half-maximal effect (EC50) was under 1 µM. Moreover, the inhibition in vivo at 50 mg/kg in experiment [2] is 21 to 30%. The viability at 20 µM in experiment [3] was in the range of 10 to 50%. Also, in experiment [4], the “SERCA Vmax Increase” value is “A (an increase in SERCA Vmax greater than or equal to 50%)”. For the same molecule, in experiment [5], the viability at 7.5 µM fell in the range of 10 to 50%.

In turn, `Cc1ccc2cccc(C(=O)Nc3cccc(F)c3)c2n1` [A3, N-(3-Fluorophenyl)-2-methylquinoline-8-carboxamide] gave a concentration giving a half-maximal response (EC50) in experiment [1] of 10 to 20 µM. The inhibition in vivo at 50 mg/kg in experiment [2] lay within 10 to 20%. Besides, in experiment [3], the viability at 20 µM fell in the range of 10 to 50%. Further, the “SERCA Vmax Increase” value in experiment [4] is “B (a value greater than 10% and less than 50%)”. In addition, the viability at 7.5 µM in experiment [5] is 10 to 50%.

Turning to `Cc1ccc(NC(=O)c2cccc3ccc(C)nc23)cc1` [A5, N-(4-Methylphenyl)-2-methylquinoline-8-carboxamide], in experiment [1], the EC50 is 1 to 10 µM. Besides, the inhibition in vivo at 50 mg/kg in experiment [2] was 21 to 30%. Further, in experiment [3], the viability at 20 µM is over 50%. Besides, the “SERCA Vmax Increase” value in experiment [4] was “B (a value greater than 10% and less than 50%)”. Further, the viability at 7.5 µM in experiment [5] is at least 50%.

Regarding `Cc1ccc2cccc(C(=O)Nc3ccc(C)s3)c2n1` [B3, 2-Methyl-N-(5-methylthiophen-2-yl)quinoline-8-carboxamide], the EC50 in experiment [1] lay within 1 to 10 µM. In addition, in experiment [2], the inhibition in vivo at 50 mg/kg lay in the range of 10 to 20%. The viability at 20 µM in experiment [3] was at most 10%. For the same molecule, in experiment [4], the “SERCA Vmax Increase” value was “B (a value greater than 10% and less than 50%)”. In experiment [5], the viability at 7.5 µM lay in the range of 1 to 10%.

Molecule `Cc1ccc2cccc(C(=O)Nc3ccc(Br)s3)c2n1` [B2, N-(5-Bromothiophen-2-yl)-2-methylquinoline-8-carboxamide] gave an EC50 in experiment [1] of 1 to 10 µM. For the same molecule, the inhibition in vivo at 50 mg/kg in experiment [2] was in the range of 21 to 30%. Also, the viability at 20 µM in experiment [3] is over 50%. Further, the “SERCA Vmax Increase” value in experiment [4] was “A (an increase in SERCA Vmax greater than or equal to 50%)”. Further, the viability at 7.5 µM in experiment [5] is 10 to 50%.

`Cc1ccc2cccc(C(=O)Nc3cccs3)c2n1` [B4, 2-Methyl-N-(thiophen-2-yl)quinoline-8-carboxamide]: in experiment [1], the EC50 was 1 to 10 µM. Further, in experiment [2], the inhibition in vivo at 50 mg/kg was over 30%. Also, the viability at 20 µM in experiment [3] was over 50%. Moreover, the “SERCA Vmax Increase” value in experiment [4] is “B (a value greater than 10% and less than 50%)”. Moreover, the viability at 7.5 µM in experiment [5] was at least 50%.

As to `Cc1ccc2cccc(C(=O)Nc3ccc(OC(C)C)cc3)c2n1` [A1, N-(4-Isopropoxyphenyl)-2-methylquinoline-8-carboxamide], the EC50 in experiment [1] fell in the range of 1 to 10 µM. Besides, the inhibition in vivo at 50 mg/kg in experiment [2] was over 30%. In addition, the viability at 20 µM in experiment [3] is over 50%. Besides, in experiment [4], the “SERCA Vmax Increase” value is given as “A (an increase in SERCA Vmax greater than or equal to 50%)”. Also, in experiment [5], the viability at 7.5 µM fell in the range of 10 to 50%.
